From patent publication US20250161212A1, “LIQUID PHARMACEUTICAL FORMULATION OF OMEPRAZOLE OR ESOMEPRAZOLE” (ALKALOID AD SKOPJE, priority 2022, published 2025)

Experiment: Stability study of esomeprazole sodium dissolved in DMSO stored at 25° C. (impurities)
Type: physicochemical
Description: Example 9—Stability Study Stability results for esomeprazole sodium dissolved in DMSO stored at 25° C.: • Key: • Imp D: omeprazole impurity D: [drawing 3] • RRT: Relative retention time.

[1] = 1.5 months, second table, Imp-s > 0.02%
[2] = 3 months, second table, Imp-s > 0.02%
[3] = 5 months, second table, Imp-s > 0.02%
[4] = 9 months, second table, Imp-s > 0.02%
[5] = 13 months, second table, Imp-s > 0.02%
[6] = Initial, second table, Imp-s > 0.02%
[7] = in DMSO, 25° C., 1.5 months, first table
[8] = in DMSO, 25° C., 5 months, first table
[9] = in DMSO, 25° C., Initial, first table

COc1ccc2nc([S@@+]([O-])Cc3ncc(C)c(OC)c3C)[nH]c2c1 (single isomer, unassigned) [esomeprazole sodium]
Total impurities (1.5 months, second table): 0.14% | Imp D (omeprazole impurity D) [1]: 0.03% | impurity RRT 1.23 [1]: 0.03% | Total impurities (3 months, second table): 0.17% | Imp D (omeprazole impurity D) [2]: 0.03% | impurity RRT 1.23 [2]: 0.03% | Total impurities (5 months, second table): 0.16% | Imp D (omeprazole impurity D) [3]: 0.03% | impurity RRT 1.17 [3]: 0.03% | Total impurities (9 months, second table): 0.25% | Imp D (omeprazole impurity D) [4]: 0.03% | impurity RRT 0.53 [4]: 0.03% | impurity RRT 1.23 [4]: 0.03% | impurity RRT 1.31 [4]: 0.03% | Total impurities (13 months, second table): 0.36% | Imp D (omeprazole impurity D) [5]: 0.03% | impurity RRT 0.54 [5]: 0.04% | impurity RRT 0.90 [5]: 0.04% | impurity RRT 1.23 [5]: 0.03% | impurity RRT 1.31 [5]: 0.04% | impurity RRT 1.32 [5]: 0.03% | Total impurities (Initial, second table): 0.12% | Imp D (omeprazole impurity D) [6]: 0.03% | impurity RRT 1.23 [6]: 0.03% | Imp D (omeprazole impurity D) [7]: Imp D = 0.03% | Total impurities [7]: Total = 0.14% | impurity RRT 1.23 [7]: RRT 1.23 = 0.03% | Imp D (omeprazole impurity D) [8]: Imp D = 0.03% | Total impurities [8]: Total = 0.15% | impurity RRT 0.57 [8]: RRT 0.57 = 0.02% | impurity RRT 1.14 [8]: RRT 1.14 = 0.02% | impurity RRT 1.17 [8]: RRT 1.17 = 0.03% | impurity RRT 1.23 [8]: RRT 1.23 = 0.02% | Imp D (omeprazole impurity D) [9]: Imp D = 0.03% | Total impurities [9]: Total = 0.12% | impurity RRT 1.19 [9]: RRT 1.19 = 0.02% | impurity RRT 1.23 [9]: RRT 1.23 = 0.03%
